From ChEMBL document CHEMBL4400575, “PROTAC Molecules for the Treatment of Autoimmune Disorders” (ACS Med Chem Lett, 2019)

biological target: Protein cereblon (Homo sapiens, UniProt Q96SW2); experiment: Displacement of (-)-thalidomide-alexa fluor/pomalidomide-fluorescein conjugated probe from […] fused CRBN (unknown origin) measured after 60 mins by fluorescence polarization assay
Sequence (Q96SW2 whole entry, the tested form may be a part): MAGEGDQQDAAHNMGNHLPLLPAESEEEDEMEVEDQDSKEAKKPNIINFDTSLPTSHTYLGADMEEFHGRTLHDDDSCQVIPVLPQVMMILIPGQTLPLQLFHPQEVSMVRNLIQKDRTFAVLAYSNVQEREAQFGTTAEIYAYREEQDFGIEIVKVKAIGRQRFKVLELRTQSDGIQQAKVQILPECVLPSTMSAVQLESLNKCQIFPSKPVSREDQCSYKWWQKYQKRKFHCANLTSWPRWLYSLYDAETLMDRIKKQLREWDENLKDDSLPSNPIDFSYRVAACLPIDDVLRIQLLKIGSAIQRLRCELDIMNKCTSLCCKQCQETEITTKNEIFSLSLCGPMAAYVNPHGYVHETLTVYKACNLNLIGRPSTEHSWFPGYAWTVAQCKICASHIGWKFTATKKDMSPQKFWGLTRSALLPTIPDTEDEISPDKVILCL

| Kd [µM] | SMILES |
| --- | --- |
| ≤ 10 | CC(=O)CCc1ccc(OC2CCC(=O)NC2=O)cc1 (stereo not drawn) |
| ≤ 10 | CN1CCN(c2ccc(NC3CCC(=O)NC3=O)cc2)CC1 (stereo not drawn) |
| 10 to 50 | O=C1CCC(Nc2ccccc2N2CCOCC2)C(=O)N1 (stereo not drawn) |
| ≤ 10 | Cc1sc2c(c1C)C(c1ccc(Cl)cc1)=N[C@@H](CC(=O)NCCCCCCCCN1CCN(c3ccc(NC4CCC(=O)NC4=O)cc3)CC1)c1nnc(C)n1-2 (stereo partly drawn) |
| ≤ 10 | CC(C)(C)OC(=O)N1CCN(c2ccc(OC3CCC(=O)NC3=O)cc2)CC1 (stereo not drawn) |
| ≤ 10 | N#Cc1ccc(-c2ccc(OC3CCC(=O)NC3=O)cc2)cc1 (stereo not drawn) |
| ≤ 10 | COc1cccc(N(C)C2CCC(=O)NC2=O)c1 (stereo not drawn) |
| ≤ 10 | Cc1nnc2n1-c1ccc(-c3cnn(CCCCCCN4CCN(c5ccc(NC6CCC(=O)NC6=O)cc5)CC4)c3)cc1C(c1ccc(Cl)cc1)=NC21CC1 (stereo not drawn) |
